{
  "source": "patent US5889029A",
  "about": "“Use of cotinine in treating psychiatric disorders” (priority 1997, dated 1999)",
  "key": {"[1]": {"conditions": "in vivo, cited from earlier work"}, "[2]": {"test_system": "Glutamic Acid Decarboxylase (GAD)", "assay": "Glutamic Acid Decarboxylase (GAD) Enzyme Assay", "type": "biochemical", "conditions": "10^-8 M; Rat corpus striatal membranes; [14C]L-Glutamic acid", "description": "Radioimmunoassay studies were conducted with rat corpus striatal membranes using the following method.\nGlutamic Acid Decarboxylase (GAD) Enzyme Assay\nRat corpus striatal membranes\nSubstrate: [^14 C]L-Glutamic acid (30-80 Ci/mmol)\nReactions are incubated in phosphate/mercapoethanol buffer\n6.9) for 30 minutes at 37° C. The reaction is\nstopped by the addition\nof trichloroacetic acid and placement on ice. Radioactive\ntrapped in phenylethylamine/methanol and quantitated using\nscintillation […] in order to ascertain any\nof test compounds with the glutamic acid decarboxylase"}, "[3]": {"conditions": "cited from earlier work"}, "[4]": {"target": "T1, Inositol Triphosphate (IP3) (Rattus norvegicus, UniProt P29994)", "T1 construct": "Rat cerebellar membranes; from tissue; host or cells: rat cerebellar membranes", "T1 sequence (P29994 whole entry)": "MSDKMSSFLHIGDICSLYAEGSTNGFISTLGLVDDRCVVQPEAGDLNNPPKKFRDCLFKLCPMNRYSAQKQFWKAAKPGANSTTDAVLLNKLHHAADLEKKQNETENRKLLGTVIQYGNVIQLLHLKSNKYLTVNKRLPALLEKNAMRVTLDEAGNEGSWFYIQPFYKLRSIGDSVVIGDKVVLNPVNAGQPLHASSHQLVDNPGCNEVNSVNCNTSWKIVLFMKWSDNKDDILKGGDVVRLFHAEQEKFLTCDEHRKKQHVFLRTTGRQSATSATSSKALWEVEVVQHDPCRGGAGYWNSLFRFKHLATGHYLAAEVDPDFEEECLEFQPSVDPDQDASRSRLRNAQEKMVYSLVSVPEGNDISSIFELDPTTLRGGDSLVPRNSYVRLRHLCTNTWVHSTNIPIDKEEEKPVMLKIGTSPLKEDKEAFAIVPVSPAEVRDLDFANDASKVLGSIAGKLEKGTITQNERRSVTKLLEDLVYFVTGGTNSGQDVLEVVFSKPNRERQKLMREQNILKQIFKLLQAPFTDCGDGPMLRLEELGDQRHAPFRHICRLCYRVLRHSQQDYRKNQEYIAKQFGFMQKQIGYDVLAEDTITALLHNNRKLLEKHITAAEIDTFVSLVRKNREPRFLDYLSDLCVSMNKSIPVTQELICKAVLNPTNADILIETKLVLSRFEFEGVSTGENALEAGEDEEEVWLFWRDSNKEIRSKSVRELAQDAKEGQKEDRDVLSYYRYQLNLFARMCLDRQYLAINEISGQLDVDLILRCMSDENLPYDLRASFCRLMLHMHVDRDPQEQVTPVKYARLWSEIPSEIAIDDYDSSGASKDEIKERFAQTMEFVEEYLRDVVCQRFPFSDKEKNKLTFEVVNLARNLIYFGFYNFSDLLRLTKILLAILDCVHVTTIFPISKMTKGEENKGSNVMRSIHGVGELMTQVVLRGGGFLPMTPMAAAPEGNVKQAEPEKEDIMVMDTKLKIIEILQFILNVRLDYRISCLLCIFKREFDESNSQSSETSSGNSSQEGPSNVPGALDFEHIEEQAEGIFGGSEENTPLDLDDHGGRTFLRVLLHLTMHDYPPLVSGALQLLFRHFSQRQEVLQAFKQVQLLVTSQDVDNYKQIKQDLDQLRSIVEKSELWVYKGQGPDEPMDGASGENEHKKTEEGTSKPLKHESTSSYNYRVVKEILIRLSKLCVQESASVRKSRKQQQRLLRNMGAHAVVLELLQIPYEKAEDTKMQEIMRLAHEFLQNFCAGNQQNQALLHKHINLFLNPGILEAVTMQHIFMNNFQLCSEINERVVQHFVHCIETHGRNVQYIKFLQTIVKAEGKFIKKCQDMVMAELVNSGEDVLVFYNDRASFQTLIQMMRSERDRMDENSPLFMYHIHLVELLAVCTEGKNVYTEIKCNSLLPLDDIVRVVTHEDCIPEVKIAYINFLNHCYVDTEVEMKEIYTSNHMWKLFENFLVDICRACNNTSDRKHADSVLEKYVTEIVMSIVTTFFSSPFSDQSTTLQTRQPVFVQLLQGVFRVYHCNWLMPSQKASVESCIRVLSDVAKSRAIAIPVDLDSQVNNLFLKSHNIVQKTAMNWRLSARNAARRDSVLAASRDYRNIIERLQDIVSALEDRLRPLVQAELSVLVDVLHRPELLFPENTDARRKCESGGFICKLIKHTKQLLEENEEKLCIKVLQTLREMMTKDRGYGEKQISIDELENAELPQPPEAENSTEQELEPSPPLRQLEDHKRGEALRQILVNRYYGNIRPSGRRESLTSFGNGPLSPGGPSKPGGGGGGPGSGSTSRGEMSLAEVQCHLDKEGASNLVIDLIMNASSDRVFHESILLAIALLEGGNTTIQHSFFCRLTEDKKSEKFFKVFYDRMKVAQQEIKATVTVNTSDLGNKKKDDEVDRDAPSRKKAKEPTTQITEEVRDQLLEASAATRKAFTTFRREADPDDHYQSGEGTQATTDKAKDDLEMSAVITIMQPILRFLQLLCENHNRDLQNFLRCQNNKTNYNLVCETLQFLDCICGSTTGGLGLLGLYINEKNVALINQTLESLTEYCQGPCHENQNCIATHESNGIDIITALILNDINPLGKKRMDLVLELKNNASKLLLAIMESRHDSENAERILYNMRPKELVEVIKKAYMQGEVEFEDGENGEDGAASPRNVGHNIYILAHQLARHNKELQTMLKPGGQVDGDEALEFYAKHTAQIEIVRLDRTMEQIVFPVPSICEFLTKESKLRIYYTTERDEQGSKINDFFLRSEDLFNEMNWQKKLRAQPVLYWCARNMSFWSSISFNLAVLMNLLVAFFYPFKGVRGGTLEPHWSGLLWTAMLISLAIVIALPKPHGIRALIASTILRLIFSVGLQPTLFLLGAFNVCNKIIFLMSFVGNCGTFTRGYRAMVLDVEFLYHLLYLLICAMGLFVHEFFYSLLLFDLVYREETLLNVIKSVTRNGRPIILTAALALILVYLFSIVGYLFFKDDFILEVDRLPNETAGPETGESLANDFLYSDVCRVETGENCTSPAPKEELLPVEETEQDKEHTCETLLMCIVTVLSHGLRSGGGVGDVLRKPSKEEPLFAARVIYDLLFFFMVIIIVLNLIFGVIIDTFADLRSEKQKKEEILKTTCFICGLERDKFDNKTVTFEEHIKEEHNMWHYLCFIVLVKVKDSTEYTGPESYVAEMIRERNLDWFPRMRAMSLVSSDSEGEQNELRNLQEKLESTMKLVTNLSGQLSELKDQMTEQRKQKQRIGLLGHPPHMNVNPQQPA", "assay": "Inositol Triphosphate (IP3) Binding Assay", "conditions": "Rat cerebellar membranes, [3H]IP3 4.0 nM, read-out: Receptor Binding Activity Percent Inhibition Average (N = 2)", "description": "Tissue cultures were prepared using standard laboratory practice for the following tissues: human recombinant M1 clone, human recombinant M2 clone, guinea pig striatal membranes, rat cortical membranes, rat striatal membranes, rat forebrain membranes, bovine hippocampal membranes, guinea pig cerebellar membranes, rat kidney membranes, recombinant rat 5HT7 clone, and rat cerebellar membranes.\nInositol Triphosphate (IP3) Binding Assay\nRat cerebellar membranes\nRadioligand: [^3 H]IP3 (10-30 Ci/mmol)\nFinal ligand concentration - [4.0 nM]\nD-myo-inositol 1,4,5-triphosphate\nReactions are carried out in 50 mM TRIS-HCl (pH 8.3)\n1 mM EDTA at 0° C. for 10 minutes. The reaction is\nrapid vacuum filtration onto glass fiber filters.\nonto the filters is determined and compared to control\norder to ascertain any interactions of test compound with\ninositol triphospate binding site."}, "Opiate (Delta)": {"target": "T2, Opiate (Delta) (Rattus norvegicus, UniProt P33533)", "T2 construct": "Rat forebrain membranes; from tissue; host or cells: rat forebrain membranes", "T2 sequence (P33533 whole entry)": "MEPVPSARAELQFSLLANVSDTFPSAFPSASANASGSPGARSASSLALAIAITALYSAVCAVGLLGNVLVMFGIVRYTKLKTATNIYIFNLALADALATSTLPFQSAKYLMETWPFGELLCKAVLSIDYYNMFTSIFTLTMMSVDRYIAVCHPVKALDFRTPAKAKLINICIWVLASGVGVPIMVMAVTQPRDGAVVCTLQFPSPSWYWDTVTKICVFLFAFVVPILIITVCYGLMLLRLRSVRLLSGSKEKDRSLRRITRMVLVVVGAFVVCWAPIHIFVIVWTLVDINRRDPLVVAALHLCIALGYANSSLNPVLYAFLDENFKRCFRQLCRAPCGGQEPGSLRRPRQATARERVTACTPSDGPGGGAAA", "assay": "Opiate (Delta) Binding Assay", "conditions": "read-out: Receptor Binding Activity Percent Inhibition Average (N = 2)"}, "[5]": {"conditions": "intravenous; cats; cited from earlier work"}, "[6]": {"target": "T3, Benzodiazepine (Peripheral) (Rattus norvegicus, UniProt P16257)", "T3 construct": "Rat kidney membranes; from tissue; host or cells: rat kidney membranes", "T3 sequence (P16257 whole entry)": "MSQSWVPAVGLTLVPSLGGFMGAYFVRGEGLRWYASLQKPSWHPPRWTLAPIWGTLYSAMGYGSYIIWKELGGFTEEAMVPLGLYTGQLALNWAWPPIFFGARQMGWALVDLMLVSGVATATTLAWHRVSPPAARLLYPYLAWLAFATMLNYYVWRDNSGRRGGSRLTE", "assay": "Benzodiazepine (Peripheral) Binding Assay", "conditions": "read-out: Receptor Binding Activity Percent Inhibition Average (N = 2)"}, "Serotonin (5HT1A)": {"target": "T4, Serotonin (5HT1A) (Bos taurus, UniProt F6Q2H9)", "T4 construct": "Bovine hippocampal membranes; from tissue; host or cells: bovine hippocampal membranes", "T4 sequence (F6Q2H9 1-422)": "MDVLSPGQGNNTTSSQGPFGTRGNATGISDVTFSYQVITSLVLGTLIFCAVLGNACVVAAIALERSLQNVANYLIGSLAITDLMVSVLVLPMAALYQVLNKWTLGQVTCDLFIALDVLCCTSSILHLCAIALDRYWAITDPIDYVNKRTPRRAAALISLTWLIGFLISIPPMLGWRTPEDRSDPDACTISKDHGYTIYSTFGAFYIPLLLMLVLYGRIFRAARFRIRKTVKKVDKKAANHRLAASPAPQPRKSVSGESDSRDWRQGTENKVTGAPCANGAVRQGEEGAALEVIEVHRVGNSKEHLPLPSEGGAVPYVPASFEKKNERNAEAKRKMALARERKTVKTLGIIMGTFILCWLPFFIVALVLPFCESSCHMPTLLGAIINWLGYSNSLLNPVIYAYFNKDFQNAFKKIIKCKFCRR", "assay": "Serotonin (5HT1A) Binding Assay", "design": "species or system Bovine", "conditions": "Bovine hippocampal membranes, [3H]-8-OH-DPAT 1.0 nM, read-out: Receptor Binding Activity Percent Inhibition Average (N = 2)"}, "[7]": {"assay": "Half-life, bioavailability and blood levels in humans", "design": "species or system human", "conditions": "in vivo"}, "[8]": {"test_system": "Serotonin (Non-Selective)", "assay": "Serotonin (Non-Selective) Binding Assay", "conditions": "Rat cortical membranes, [3H]Lysergic acid diethylamide 5.0 nM"}, "[9]": {"target": "T5, recombinant Rat 5HT7 Clone (Rattus norvegicus, UniProt P32305)", "T5 construct": "expressed in transfected cells", "T5 sequence (P32305 whole entry)": "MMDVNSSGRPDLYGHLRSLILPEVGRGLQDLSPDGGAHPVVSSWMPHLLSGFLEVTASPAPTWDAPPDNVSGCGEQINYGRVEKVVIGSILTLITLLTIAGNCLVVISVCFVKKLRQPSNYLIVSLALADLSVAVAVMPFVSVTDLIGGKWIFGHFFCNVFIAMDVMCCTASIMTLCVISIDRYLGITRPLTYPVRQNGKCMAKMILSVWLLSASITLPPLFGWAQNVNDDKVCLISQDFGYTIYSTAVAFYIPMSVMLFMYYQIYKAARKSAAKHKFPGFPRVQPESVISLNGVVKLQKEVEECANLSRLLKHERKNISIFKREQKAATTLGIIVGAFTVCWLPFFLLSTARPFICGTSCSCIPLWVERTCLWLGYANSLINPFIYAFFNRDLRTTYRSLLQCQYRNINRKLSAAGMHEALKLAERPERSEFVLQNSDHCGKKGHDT", "assay": "Serotonin--5HT7 Clone Binding Assay", "conditions": "[3H]LSD 2.0 nM, read-out: Receptor Binding Activity Percent Inhibition Average (N = 2)"}, "Histamine (H3)": {"target": "T6, Histamine (H3) (Rattus norvegicus, UniProt Q9QYN8)", "T6 construct": "Rat forebrain membranes; from tissue; host or cells: rat forebrain membranes", "T6 sequence (Q9QYN8 whole entry)": "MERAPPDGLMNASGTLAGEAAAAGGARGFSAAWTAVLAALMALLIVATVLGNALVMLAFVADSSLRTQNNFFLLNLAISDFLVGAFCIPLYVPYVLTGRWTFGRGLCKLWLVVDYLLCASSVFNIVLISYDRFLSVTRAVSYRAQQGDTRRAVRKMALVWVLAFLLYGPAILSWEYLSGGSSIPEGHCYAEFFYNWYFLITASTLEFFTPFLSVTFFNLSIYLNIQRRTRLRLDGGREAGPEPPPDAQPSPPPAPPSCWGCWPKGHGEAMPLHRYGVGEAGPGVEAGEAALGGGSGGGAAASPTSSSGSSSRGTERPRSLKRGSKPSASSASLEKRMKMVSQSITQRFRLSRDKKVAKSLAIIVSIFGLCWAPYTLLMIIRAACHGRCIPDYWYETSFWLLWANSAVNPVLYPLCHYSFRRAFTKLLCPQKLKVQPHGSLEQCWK", "assay": "Histamine (H3) Binding Assay", "conditions": "Rat forebrain membranes, [3H]N^a-methylhistamine 0.2 nM, read-out: Receptor Binding Activity Percent Inhibition Average (N = 2)"}, "Histamine (H2)": {"target": "T7, Histamine (H2) (Cavia porcellus, UniProt P47747)", "T7 construct": "Guinea pig striatal membranes; from tissue; host or cells: guinea pig striatal membranes", "T7 sequence (P47747 whole entry)": "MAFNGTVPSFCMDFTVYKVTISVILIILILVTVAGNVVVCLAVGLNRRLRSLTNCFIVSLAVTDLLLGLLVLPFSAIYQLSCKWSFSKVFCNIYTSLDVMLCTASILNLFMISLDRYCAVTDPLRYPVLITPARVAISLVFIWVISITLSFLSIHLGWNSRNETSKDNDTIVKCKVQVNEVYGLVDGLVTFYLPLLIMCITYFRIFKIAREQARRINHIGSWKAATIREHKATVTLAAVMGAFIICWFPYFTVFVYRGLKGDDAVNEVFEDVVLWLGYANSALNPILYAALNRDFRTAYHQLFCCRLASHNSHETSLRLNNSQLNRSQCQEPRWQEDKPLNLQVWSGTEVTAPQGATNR", "assay": "Histamine (H2) Binding Assay", "design": "species or system Guinea pig", "conditions": "Guinea pig striatal membranes, [3H]Tiotidine 4.0 nM, read-out: Receptor Binding Activity Percent Inhibition Average (N = 2)"}, "GABA uptake site": {"target": "T8, GABA uptake site (Rattus norvegicus, UniProt P23978)", "T8 construct": "Rat cortical membranes; from tissue; host or cells: rat cortical membranes", "assay": "biochemical", "conditions": "Rat cortical membranes, [3H]GABA 3.6 nM, read-out: Receptor Binding Activity Percent Inhibition Average (N = 2)"}, "[10]": {"conditions": "cited from earlier work", "remark": "listed apart in the source"}, "Dopamine (D1 Central)": {"target": "T9, Dopamine (D1 Central) (Rattus norvegicus, UniProt P18901)", "T9 construct": "Rat striatal membranes; from tissue; host or cells: rat striatal membranes", "T9 sequence (P18901 whole entry)": "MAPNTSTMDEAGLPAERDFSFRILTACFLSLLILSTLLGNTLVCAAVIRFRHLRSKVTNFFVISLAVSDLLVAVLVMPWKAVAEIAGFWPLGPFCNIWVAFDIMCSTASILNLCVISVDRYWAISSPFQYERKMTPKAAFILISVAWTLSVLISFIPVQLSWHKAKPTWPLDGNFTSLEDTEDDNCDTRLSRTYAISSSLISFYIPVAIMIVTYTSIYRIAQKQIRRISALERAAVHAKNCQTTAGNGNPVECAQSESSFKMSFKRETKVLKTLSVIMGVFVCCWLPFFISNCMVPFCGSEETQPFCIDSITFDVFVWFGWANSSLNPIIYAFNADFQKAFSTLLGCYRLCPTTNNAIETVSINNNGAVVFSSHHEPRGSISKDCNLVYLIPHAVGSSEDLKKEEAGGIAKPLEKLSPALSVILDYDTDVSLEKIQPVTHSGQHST", "assay": "Dopamine (D1 Central) Binding Assay", "conditions": "Rat striatal membranes, [3H]SCH 23390 0.5 nM"}},
  "note": "Read-outs that look alike come from different tables or passages of the source.",
  "data": [
    {"smiles": "CN1C(=O)CCC1c1cccnc1", "note": "(single isomer, unassigned) [Cotinine, 1-methyl-5-(3-pyridinyl)-2-pyrrolidionone]", "values": [
      {"measurement": "passage of the blood-brain barrier", "setting": "[1]", "result": "pass the blood-brain barrier"},
      {"measurement": "passage of the blood-brain barrier", "setting": "[1]; listed as cotinine", "result": "capable of passing the blood-brain barrier"},
      {"measurement": "Percent Inhibition", "setting": "[2]", "result": 38, "unit": "%"},
      {"measurement": "terminal elimination half-life", "setting": "[3]; human, in vivo", "result": "about 16 hours"},
      {"measurement": "half-life", "setting": "[3]; in the human, in vivo", "result": "16 to 17", "unit": "h"},
      {"measurement": "oral bioavailability", "setting": "[3]; in vivo, po", "result": "complete"},
      {"measurement": "terminal elimination half-life", "setting": "[3]; in vivo", "result": "sixteen"},
      {"measurement": "blood concentration in smokers", "setting": "[3]; nicotine: one-pack-a-day smoker, cotinine: one-half-pack-a-day smoker", "result": "about 300 ng/ml"},
      {"measurement": "concentration", "setting": "[3]; read-out: blood concentration in smokers, nicotine: one-pack-a-day smoker, cotinine: one-half-pack-a-day smoker", "result": "~2000", "unit": "nM"},
      {"measurement": "inhibition at 100 µM", "setting": "[4]; 10^-4 M", "result": 8.3, "unit": "%"},
      {"measurement": "inhibition at 1 µM", "setting": "[4]; 10^-6 M", "result": 4.8, "unit": "%"},
      {"measurement": "inhibition at 1 µM", "setting": "Opiate (Delta)", "result": 8.3, "unit": "%"},
      {"measurement": "inhibition at 100 µM", "setting": "Opiate (Delta)", "result": 10, "unit": "%"},
      {"measurement": "EEG activity and behavioral arousal", "setting": "[5]", "result": "increases only slightly"},
      {"measurement": "blood pressure", "setting": "[5]", "result": "only a slight decrease"},
      {"measurement": "inhibition at 1 µM", "setting": "[6]", "result": 8.5, "unit": "%"},
      {"measurement": "inhibition at 100 µM", "setting": "[6]", "result": 1.4, "unit": "%"},
      {"measurement": "inhibition at 100 µM", "setting": "Serotonin (5HT1A); 10^-4 M", "result": 1.4, "unit": "%"},
      {"measurement": "inhibition at 1 µM", "setting": "Serotonin (5HT1A); 10^-6 M", "result": 1.1, "unit": "%"},
      {"measurement": "duration of effectiveness relative to nicotine, due to greater half-life", "setting": "[7]", "result": "about eight"},
      {"measurement": "Receptor Binding Activity Percent Inhibition Average (N = 2)", "setting": "[8]; 10^-4 M", "result": 12.1, "unit": "%"},
      {"measurement": "Receptor Binding Activity Percent Inhibition Average (N = 2)", "setting": "[8]; 10^-6 M", "result": 4.6, "unit": "%"},
      {"measurement": "inhibition at 100 µM", "setting": "[9]; 10^-4 M", "result": 6.4, "unit": "%"},
      {"measurement": "inhibition at 1 µM", "setting": "[9]; 10^-6 M", "result": -0.3, "unit": "%"},
      {"measurement": "inhibition at 100 µM", "setting": "Histamine (H3); 10^-4 M", "result": 15.7, "unit": "%"},
      {"measurement": "inhibition at 1 µM", "setting": "Histamine (H3); 10^-6 M", "result": 11.9, "unit": "%"},
      {"measurement": "inhibition at 100 µM", "setting": "Histamine (H2); 10^-4 M", "result": -1.4, "unit": "%"},
      {"measurement": "inhibition at 1 µM", "setting": "Histamine (H2); 10^-6 M", "result": 9.2, "unit": "%"},
      {"measurement": "inhibition at 100 µM", "setting": "GABA uptake site; 10^-4 M", "result": 7.4, "unit": "%"},
      {"measurement": "inhibition at 1 µM", "setting": "GABA uptake site; 10^-6 M", "result": 13.9, "unit": "%"},
      {"measurement": "amount present in the blood without producing deleterious effects", "setting": "[10]; humans", "result": "~18,000 ng/ml"},
      {"measurement": "effect on the cardiovascular system", "setting": "[10]; in vivo", "result": "minimal effect"},
      {"measurement": "harm at very high doses", "setting": "[10]; many species, including man", "result": "has not been reported to be harmful"},
      {"measurement": "Receptor Binding Activity Percent Inhibition Average (N = 2)", "setting": "Dopamine (D1 Central); 10^-4 M", "result": 3.3, "unit": "%"},
      {"measurement": "Receptor Binding Activity Percent Inhibition Average (N = 2)", "setting": "Dopamine (D1 Central); 10^-6 M", "result": 2.9, "unit": "%"}
    ]}
  ]
}
